# B1: L-fucokinase/GDP-fucose pyrophosphorylase (FKP) from Bacteroides fragilis 9343, full-length wild type (enzyme, UniProt Q58T34 1-949, looked up)
# chain: MQKLLSLPSNLVQSFHELERVNRTDWFCTSDPVGKKLGSGGGTSWLLEECYNEYSDGATFGEWLEKEKRILLHAGGQSRRLPGYAPSGKILTPVPVFRWERGQHLGQNLLSLQLPLYEKIMSLAPDKLHTLIASGDVYIRSEKPLQSIPEADVVCYGLWVDPSLATHHGVFASDRKHPEQLDFMLQKPSLAELESLSKTHLFLMDIGIWLLSDRAVEILMKRSHKESSEELKYYDLYSDFGLALGTHPRIEDEEVNTLSVAILPLPGGEFYHYGTSKELISSTLSVQNKVYDQRRIMHRKVKPNPAMFVQNAVVRIPLCAENADLWIENSHIGPKWKIASRHIITGVPENDWSLAVPAGVCVDVVPMGDKGFVARPYGLDDVFKGDLRDSKTTLTGIPFGEWMSKRGLSYTDLKGRTDDLQAVSVFPMVNSVEELGLVLRWMLSEPELEEGKNIWLRSEHFSADEISAGANLKRLYAQREEFRKGNWKALAVNHEKSVFYQLDLADAAEDFVRLGLDMPELLPEDALQMSRIHNRMLRARILKLDGKDYRPEEQAAFDLLRDGLLDGISNRKSTPKLDVYSDQIVWGRSPVRIDMAGGWTDTPPYSLYSGGNVVNLAIELNGQPPLQVYVKPCKDFHIVLRSIDMGAMEIVSTFDELQDYKKIGSPFSIPKAALSLAGFAPAFSAVSYASLEEQLKDFGAGIEVTLLAAIPAGSGLGTSSILASTVLGAINDFCGLAWDKNEICQRTLVLEQLLTTGGGWQDQYGGVLQGVKLLQTEAGFAQSPLVRWLPDHLFTHPEYKDCHLLYYTGITRTAKGILAEIVSSMFLNSSLHLNLLSEMKAHALDMNEAIQRGSFVEFGRLVGKTWEQNKALDSGTNPPAVEAIIDLIKDYTLGYKLPGAGGGGYLYMVAKDPQAAVRIRKILTENAPNPRARFVEMTLSDKGFQVSRS
# Legend:
# [1] = biological target: T1, L-fucokinase/GDP-fucose pyrophosphorylase (FKP); BfFKP (Bacteroides fragilis, UniProt Q58T34); experiment: NADH coupled assay of fucokinase activity; type: biochemical; conditions: co-substrate ATP; C-terminal fucokinase domain
# T1 construct: full-length wild type, overexpressed and purified; about 105 kDa protomer, tetramer; model covers residues 71-398 and 467-949
# [2] = biological target: the molecule itself; experiment: SEC; purified FKP on size exclusion chromatography; eluted at the volume of the 440 kDa molecular weight marker
Molecule,NADH coupled assay of fucokinase activity [1],stoichiometry N [2]
"C[C@@H]1OC(O)[C@@H](O)[C@H](O)[C@@H]1O (stereo partly drawn) [L-fucose, 6-deoxy-L-galactose]",We applied the NADH coupled assay and the pyrophosphate assay to characterize the fucokinase activity,
B1,,4
